Patent US8481503B2, “Combination cancer therapy with an AKT inhibitor and other anticancer agents” (Merck Sharp & Dohme Corp., priority 2009, dated 2013)

Tests used:
Format in all cases: cell-based, Human
[1] = tested on: A2780 ovarian cancer cell line; test: in vitro proliferation/viability, combination Compound A and standard of care agents (CellTiter-Glo, CalcuSyn CI); conditions: combination partner SOC with Compound A, simultaneous 72 h
Procedure: (§1) A 2- or 3-fold serial dilution series of concentrated Compound A/carboplatin combinations was prepared, in which the concentration ratio of the two drugs was fixed and equal to […] ratio of Compound A and carboplatin determined in single agent titrations described above. Corresponding single agent dilution series of concentrated Compound A and carboplatin were also prepared. The three dilution series were then tested in the proliferation/viability assay as described above. The data were analyzed using CalcuSyn software (BIOSOFT) that calculates combination index (CI) for each combination of Compound A/carboplatin as described below. Combination index values were generated by inserting the interpolated values into the mutually exclusive equation derived by Chou and Talalay.
(§2) Synergistic interaction between compounds was analyzed by the median effect method described by Chou and Talalay (Adv. Enzyme Regul. 22: 27-55, 1984). Studies were first conducted to determine the potency of Compound A or combination partner (Drug-A) as single agent in inhibiting proliferation/viability of tumor cells. The IC50 values of each single agent were determined by fitting data to four parameter dose-response equation. Percent inhibition of cell growth was calculated relative to vehicle treated control wells. […] Y starts at Bottom and goes to Top with a sigmoid shape.
(§3) The fixed ratio experimental design was then used to compare of various Compound A/Drug-A combinations and corresponding single agent treatments.
(§4) D1 and D2 are known from the composition of the combination and D1c and D2c can be calculated from the equation; Dc=Dm*[fa/(1−fa)]^1/m where Dm is the concentration of drugs giving 50% effect, fa is the fraction affected, and m is the slope from the median effect plot of log (fa/fu) where fu is the fraction unaffected versus log (D). A CI equal to 1 signifies an additive effect, less than 1 a synergistic effect, and greater than 1 an antagonistic effect.
Human ovarian cancer cell (A2780) was obtained from the European Collection of Cell Culture (ECACC). A2780 cells were cultured in RPMI-1640 containing heat-inactivated 10% fetal bovine serum (FBS) in a humidified incubator at 37° C. in 5% CO2.
(§5) The cells were seeded at 2,000 cells/well in RPMI 1640 supplemented with 10% heat-inactivated FBS in 96 well tissue culture plates (CORNING #3340) and incubated at 37° C. in 5% CO2 overnight. On the next day Compound A, doxorubicin or the combination of the two agents was added as a 2-fold dilution series in RPMI containing 1% DMSO. The final DMSO concentration in each assay was 0.1%. The plates were then incubated at 37° C. in 5% CO2 for 72 hours. The number of viable cells was measured using CellTiter-Glo cell viability assay (Promega #G7571). The luminiscence signal was read using a ARVO-SX multimode plate reader (Perkin-Elmer). Combination index was determined by the same method as described in section T1.3.
as §5, with “camptothecin” for “doxorubicin”
The cells were seeded at 2,000 cells/well in RPMI 1640 supplemented with 10% heat-inactivated FBS in 96 well tissue culture plates (CORNING #3340) and incubated at 37° C. in 5% CO2 overnight. On the next day Compound A, 5-FU or the combination of the two agents was added as a 2-fold dilution series in RPMI containing 1% DMSO.

[2] = tested on: Caspase-3/7; test: Caspase-3/7 assay (Caspase-Glo 3/7) in A2780 cells, Compound A plus cytotoxic agents
Procedure: A2780 ovarian cancer cell line was cultured at 37° C. in complete medium (RPMI-1640 supplemented with 10% heat-inactivated FBS) and plated at 2,000 cells/well in 96 well assay plates (CORNING #3340). […] Then, Compound A and cytotoxic agents were added to each well and incubated at 37° C. in 5% CO2 for 24 hours. […] Medium was removed and 50 ul of Caspase-Glo reagents were added to wells. […] Relative Caspase-3/7 induction level was then calculated as the fold increase compared with the level of caspase-3/7 induction in the non-treatment group.

[3] = tested on: NCI-H460 NSCLC cell line; test: in vitro proliferation/viability, combination Compound A and standard of care agents (CellTiter-Glo, CalcuSyn CI); conditions: combination partner SOC with Compound A, simultaneous 72 h
Procedure: as §1, §2, §3, §4
Human non-small cell lung cancer cell (NCI-H460) was obtained from the American Type Culture Collection (ATCC). NCI-H460 cells were cultured in RPMI-1640 containing heat-inactivated 10% fetal bovine serum (FBS) in a humidified incubator at 37° C. in 5% CO2.
as §5, with “NCI-H460 NSCLC cell line was” for “The cells were”
as §5, with “NCI-H460 NSCLC cell line was” for “The cells were”, “camptothecin” for “doxorubicin”
NCI-H460 NSCLC cell line was seeded at 2,000 cells/well in RPMI 1640 supplemented with 10% heat-inactivated FBS in 96 well tissue culture plates (CORNING #3340) and incubated at 37° C. in 5% CO2 overnight.

[4] = tested on: Caspase-3/7; test: Caspase-3/7 assay (Caspase-Glo 3/7) in NCI-H460 cells, Compound A plus cytotoxic agents
[5] = combination partner SOC with Compound A 62.5 nM
[6] = combination partner SOC with Compound A 250 nM
[7] = combination partner SOC with Compound A 1000 nM

| Structure (SMILES) | Combination index for above fractional inhibition, ED50 [1] | Combination index for above fractional inhibition, ED75 [1] | Combination index for above fractional inhibition, ED90 [1] | Caspase-3/7 fold induction at 24 h (fold of DMSO control) [2, 5] | Caspase-3/7 fold induction at 24 h (fold of DMSO control) [2, 6] | Caspase-3/7 fold induction at 24 h (fold of DMSO control) [2, 7] | Combination index for above fractional inhibition, ED50 [3] | Combination index for above fractional inhibition, ED75 [3] | Combination index for above fractional inhibition, ED90 [3] | Caspase-3/7 fold induction at 24 h (fold of DMSO control) [4, 5] | Caspase-3/7 fold induction at 24 h (fold of DMSO control) [4, 6] | Caspase-3/7 fold induction at 24 h (fold of DMSO control) [4, 7] |
| --- | --- | --- | --- | --- | --- | --- | --- | --- | --- | --- | --- | --- |
| CC[C@@]1(O)C(=O)OCc2c1cc1n(c2=O)Cc2cc3ccccc3nc2-1 [Camptothecin, 4-ethyl-4-hydroxy-1H-pyrano[3′,4′:6,7]indolizino[1,2-b]quinoline-3,14-(4H,12H)-dione] | 0.56 | 0.40 | 0.29 | 1.9 fold of DMSO control | 2.6 fold of DMSO control | 4.0 fold of DMSO control | 0.39 | 0.39 | 0.63 | 1.2 fold of DMSO control | 1.4 fold of DMSO control | 1.7 fold of DMSO control |
| O=c1[nH]cc(F)c(=O)[nH]1 [Compound 5-FU, 5-fluorouracil] | 0.68 | 0.54 | 0.53 | 1.5 fold of DMSO control | 1.7 fold of DMSO control | 2.5 fold of DMSO control | 0.35 | 0.30 | 0.37 | 1.2 fold of DMSO control | 1.3 fold of DMSO control | 1.4 fold of DMSO control |
| COc1cccc2c1C(=O)c1c(O)c3c(c(O)c1C2=O)C[C@@](O)(C(=O)CO)C[C@@H]3O[C@H]1C[C@H](N)[C@H](O)[C@H](C)O1 [Doxorubicin, (2S,4S)-4-(3-amino-2,3,6-trideoxy-α-L-lyxo-hexopyranosyloxy)-2,5,12-trihydroxy-2-hydroxyacetyl-7-methoxy-1,2,3,4-tetrahydrotetracene-6,11-dione] | 0.70 | 0.43 | 0.27 | 1.6 fold of DMSO control | 2.8 fold of DMSO control | 4.1 fold of DMSO control | 0.27 | 0.18 | 0.17 | 1.3 fold of DMSO control | 1.7 fold of DMSO control | 2.8 fold of DMSO control |
